Source: ChEMBL document CHEMBL1156829 (Proc Natl Acad Sci U S A, 2008)

Experiments:
[1] = tested on: Plasmodium falciparum; assay: NOVARTIS: Inhibition of Plasmodium falciparum 3D7 (drug-susceptible) proliferation in erythrocyte-based infection assay; assay type: functional, organism-based; details: Plasmodium falciparum, 3D7
[2] = tested on: Plasmodium falciparum; assay: NOVARTIS: Inhibition of Plasmodium falciparum W2 (drug-resistant) proliferation in erythrocyte-based infection assay; assay type: functional, organism-based; details: Plasmodium falciparum, W2; read-out: EC50
[3] = NOVARTIS: Cytotoxicity against human hepatocellular carcinoma cell line (Huh7); assay type: toxicity, cell-based, Huh-7; details: Huh7 cells (hepatocellular carcinoma cell line)

| Compound | EC50 [1] [nM] | EC50 [2] [nM] | CC50 [3] [nM] |
| --- | --- | --- | --- |
| O=C(NC(=CC=Cc1ccccc1)C(=O)N1CCOCC1)c1ccc(Br)cc1 | > 10400 | 683 | > 100000 |
| CCOc1ccc2nc3cc(NCc4ccco4)ccc3c(N)c2c1 | 846 | 757 | 37900 |
| COc1ccc(S(=O)(=O)ON=C2C=C(C(C)C)C(=O)C=C2C)cc1 | 834 | 296 | 18300 |
| CCN(CC)c1ccc2c(C)cc(Nc3ccccc3)[o+]c2c1 | 239 | 746 | > 10000 |
| FC(F)(F)c1ccc(Nc2nnnc3ccccc23)cc1 | 7720 | 7230 | > 100000 |
| CC1CCC2C(C)C(=O)OC3OC4(C)CCC1C32OO4 (centres undefined) | 12 | 4.58 | > 100000 |
| NC1(C(=O)O)CCc2cc(C(=O)O)ccc21 (centres undefined) | > 1160 | 833 | > 10000 |
| Cc1ccc(-n2c(SCc3cc(=O)n4ccccc4n3)nc3ccsc3c2=O)cc1C | > 1160 | > 1250 | > 10000 |
| O=C(NCCc1ccc(-c2ccccc2)cc1)c1ccc(NS(=O)(=O)C(F)(F)F)cc1 | > 1250 | > 439 | > 8730 |
| CCCCCCc1ccc(C(=O)NCCCCNc2ccnc3cc(Cl)ccc23)cc1 | 241 | 169 | > 10800 |
| O=C(CCl)Nc1ccc2c(c1)OCO2 | 1900 | 831 | 20300 |
| Nc1nonc1-n1nnc(-c2ccccc2)c1C(=O)NN=Cc1ccc(F)c(Br)c1 | 342 | 119 | > 100000 |
| CCCCCCN(C(=O)COCc1ccccc1)C(C)c1nc2ccccc2c(=O)n1-c1cccc(Cl)c1C (centres undefined) | 1160 | 596 | > 10000 |
| OC(CN1CCN(CC=Cc2ccccc2)CC1)Cn1c2ccc(Cl)cc2c2cc(Cl)ccc21 (centres undefined) | 181 | 75 | 17900 |
| c1ccc(Nc2nc(-c3ccccn3)cs2)nc1 | 114 | 58.5 | 18600 |
| Oc1c(C(Nc2ccccn2)c2ccc(Cl)cc2Cl)ccc2cccnc12 (centres undefined) | > 1300 | 160 | > 10000 |
| CCCCCCCC(=O)N1CCN(C(=O)C(NC(=O)Nc2ccc(Cl)cc2Cl)C(C)CC)CC1 (centres undefined) | > 40.8 | 701 | > 10000 |

| Compound | EC50 [1] [nM] | EC50 [2] [nM] | CC50 [3] [nM] |
| --- | --- | --- | --- |
| CCOC(=O)C1=C(C)NC2=C(C(=O)CC(C)(C)C2)C1c1ccccn1 (centres undefined) | > 12500 | 1260 | > 100000 |
| COC(=O)c1ccc(Nc2nc(NCc3ccco3)c3ccccc3n2)cc1 | 279 | 433 | 18800 |
| CC1=C(C(=O)Nc2ccc(C)cc2C)C(c2cc(Br)ccc2F)n2ncc(C(=O)Nc3ccc(C)cc3)c2N1 (centres undefined) | 2550 | 857 | > 100000 |
| Cc1ccccc1C[n+]1cc(-c2ccc(Cl)cc2)n2c1CCC2 | 1390 | 1720 | > 100000 |
| CCCCOC(=O)C1=C(C)NC2=C(C(=O)CCC2)C1c1ccc(Cl)c(Cl)c1 (centres undefined) | 574 | 359 | > 100000 |
| COc1ccc(-[n+]2cc(-c3ccc(Br)cc3)n3c2SCCC3)cc1 | 609 | 172 | > 100000 |
| CC1CC(C)CC(C)C(O)C(C#N)=CC=CCC(C2CCCC2C(=O)O)OC(=O)CC(O)C(C)C1 (centres undefined) | 43.7 | > 1250 | 2850 |
| COc1cc(NC(C)CCCN(Cc2ccc(OC)c(OC)c2)C(=O)CCC2CCCC2)c2ncccc2c1 (centres undefined) | 687 | 333 | 3990 |
| C(#Cc1ccccc1)C[N+]1(CC#Cc2ccc(C#CC[N+]3(CC#Cc4ccccc4)CCCCC3)cc2)CCCCC1 | 493 | 252 | > 100000 |
| COc1ccc(NC(=O)C2c3ccccc3C(=O)N(CC(C)C)C2c2cccs2)cc1OC (centres undefined) | 76 | 68.8 | > 100000 |
| CCCC(=O)N(C/C=C/c1ccccc1OC)CCN1CCN(C(=O)Nc2cccc(C)c2)CC1 | > 1250 | 148 | > 10000 |
| Cc1ccc(C2CC(C(F)(F)F)n3ncc(C(=O)Nc4ccc(Cl)cc4)c3N2)cc1 (centres undefined) | 2870 | 3440 | 95000 |
| O=C(c1cccc(F)c1)N1CCN(Cc2ccncc2)CC1 | > 9940 | 2170 | > 100000 |
| Cc1ccc(-c2nn(CC(=O)Nc3cccc(C)c3)c(=O)c3ccccc23)cc1 | > 1090 | > 1250 | > 10000 |
| CCNC(=O)N(CCCCOc1ccc(C(C)(C)CC)cc1C(C)(C)CC)Cc1ccc(OC)c(OCc2ccccc2)c1 | 595 | 61 | > 10000 |
| COc1ccc(Nc2nc(NN=Cc3cccc(Cl)c3)nc(Nc3ccc([N+](=O)[O-])cc3)n2)cc1 | 603 | 717 | > 100000 |
